According to patent US7172865B2, “Rapid and sensitive assay for the detection and quantification of coregulators of nucleic acid binding factors” (Saint Louis University, priority 2001, dated 2007):

Tests used:
[1] = system: LacR binding site split between LAC1/LAC4 and LAC2/LAC3; assay: detection of Lac repressor protein by fluorescence quenching
Excerpt: The LAC1 oligonucleotide (SEQ ID NO:12) was hybridized with the LAC4 oligonucleotide (SEQ ID NO:15) to generate the LAC1/LAC4 construct and the LAC2 oligonucleotide (SEQ ID NO:13) was hybridized with the LAC3 oligonucleotide (SEQ ID NO:14) to generate the LAC2/LAC3 construct.

LacR protein = LacR protein (Escherichia coli, UniProt P03023); assay: IPTG biosensor; format: binding; conditions: 50 nM and 60 nM components, 2 hrs
Description: FIG. 24 describes a biosensor for detecting IPTG. Increasing concentrations of IPTG were added to a mixture containing 50 nM fluorescein-labeled LacR-specific first nucleic acid component and 60 nM dabcyl-labeled Lac-specific second nucleic acid component.
FIG. 24 illustrates a biosensor design using a nucleic acid binding factor for which the coregulator reduced its affinity for a specific nucleic acid element. In this case, the coregulator will induce the dissociation of the protein-nucleic acid complex and its detection could be accomplished by coregulator-dependent disappearance of protein-nucleic acid complex. […] In the absence of IPTG (a coregulator for LacR) the LacR protein bound to its labeled cognate nucleic acid element resulting in quenching of the fluorescence signal.

CAP protein = CAP protein (Escherichia coli, UniProt P0ACJ8); conditions: cited from earlier work
TrpR [2] = target: T1, TrpR (Escherichia coli, UniProt P0A881); assay: tryptophan biosensor, fluorescence intensity; format: binding; conditions: 250 nM and 300 nM components, 2 hrs
Description: Increasing concentrations of tryptophan were added to a mixture containing 250 nM fluorescein labeled TrpR-specific first nucleic acid component and 300 nM dabcyl-labeled Trp-specific second nucleic acid component.

TrpR [3] = target: T1, TrpR; assay: tryptophan biosensor, fluorescence polarization; format: binding; conditions: 4 nM fluorescein-labeled 25 bp duplex
Description: Increasing concentrations of tryptophan were added to a mixture containing 4 nM fluorescein-labeled 25 bp DNA duplex containing consensus TrpR binding sites.
To illustrate that a different detection methodology for measuring the formation of nucleic acid-protein complexes could be accommodated to the biosensor design shown in FIG. 20, a biosensor for tryptophan was prepared wherein only one nucleic acid component was attached to a detectable label. According to this particular embodiment of the invention, fluorescence polarization of fluorochrome-labeled DNA component containing a TrpR cognate binding site was used to measure tryptophan-induced formation of a TrpR-nucleic acid complex (FIG. 23).

[4] = system: TrpR binding site split between TRP1/TRP4 and TRP2/TRP3; conditions: 250 nM TRP1/TRP4 and 300 nM TRP2/TRP3, 4 mM tryptophan
Description: The TRP1 oligonucleotide (SEQ ID NO:16) was hybridized with the TRP4 oligonucleotide (SEQ ID NO:19) to generate the TRP1/TRP4 construct and the TRP2 oligonucleotide (SEQ ID NO:17) was hybridized with the TRP3 oligonucleotide (SEQ ID NO:18) to generate the TRP2/TRP3 construct. For the hybridization, the appropriate oligonucleotides were mixed at 10 μM concentration in 100 μl of 50 mM Tris/HCl (pH 8.0), 100 mM NaCl, 1 mM EDTA, heated for 1 min at 95° C. and then cooled to 25° C. for 1 hr. All subsequent fluorescence measurements were performed at 15° C. in 10 mM potassium phosphate (pH 7.6), 50 mM NaCl, 0.1 mM EDTA, 4mM tryptophan, 10% glycerol, 0.01% sodium azide and 1.0 mg/ml BSA. […] The duplexes contain a TrpR binding site (underlined sequence) split between each of the two double stranded constructs.
The fluorescence spectra of 250 nM TRP1/TRP4 and 300 nM TRP2/TRP3 were recorded in the absence of TrpR (FIG. 16A, curve 1) and in the presence of varying amounts of TrpR in a range from 0–800 nM (FIG. 16A, curves 2–5). ).

Chain of CAP protein (P0ACJ8 2-210): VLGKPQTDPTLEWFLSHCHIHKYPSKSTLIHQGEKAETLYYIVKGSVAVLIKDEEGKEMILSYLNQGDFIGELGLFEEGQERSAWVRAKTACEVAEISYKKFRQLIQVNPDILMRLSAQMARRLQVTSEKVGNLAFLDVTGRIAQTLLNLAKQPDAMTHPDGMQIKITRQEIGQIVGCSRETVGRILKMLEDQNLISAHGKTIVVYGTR

Molecule: CC(C)S[C@@H]1O[C@H](CO)[C@H](O)[C@H](O)[C@H]1O [IPTG, reference compound]
- effect on LacR nucleic acid binding activity ([1]; 5 mM IPTG): reduces its nucleic acid binding activity
- fluorescence signal response to IPTG (LacR protein): IPTG-dependent increase in fluorescence signal

Molecule: Nc1nc2c(ncn2[C@@H]2O[C@@H]3COP(=O)(O)O[C@H]3[C@H]2O)c(=O)[nH]1 [cGMP]
- affinity of CAP for the cyclic nucleotide (CAP protein; CAP alone): micromolar affinity
- change of affinity of CAP for the nucleotide in the presence of DNA containing a CAP binding site (CAP protein): remains unchanged

Molecule: N[C@@H](Cc1c[nH]c2ccccc12)C(=O)O [tryptophan]
- fluorescence signal response to tryptophan (TrpR [2]): large fluorescence signal change
- fluorescence polarization response to tryptophan (TrpR [3]): change of fluorescence polarization signal proportional to tryptophan concentration

B1: LacR: Lac repressor protein, nucleic acid binding reduced by IPTG (protein, UniProt P03023 1-360, looked up)
Lactose operon repressor: MKPVTLYDVAEYAGVSYQTVSRVVNQASHVSAKTREKVEAAMAELNYIPNRVAQQLAGKQSLLIGVATSSLALHAPSQIVAAIKSRADQLGASVVVSMVERSGVEACKAAVHNLLAQRVSGLIINYPLDDQDAIAVEAACTNVPALFLDVSDQTPINSIIFSHEDGTRLGVEHLVALGHQQIALLAGPLSSVSARLRLAGWHKYLTRNQIQPIAEREGDWSAMSGFQQTMQMLNEGIVPTAMLVANDQMALGAMRAITESGLRVGADISVVGYDDTEDSSCYIPPLTTIKQDFRLLGQTSVDRLLQLSQGQAVKGNQLLPVSLVKRKTTLAPNTQTASPRALADSLMQLARQVSRLESGQ
- protein concentration at saturation of quenching ([1]; 50 nM LAC1/LAC4 plus LAC2/LAC3): approximately 150 nM
- protein concentration at saturation of quenching [4]: approximately 150 nM
